Residues, ends and D or L forms follow the SMILES beside them. *: point of attachment. Cbz = O=C(OCc1ccccc1)*; CH2F = FC*
Legend:
Mia PACA-2 cells [1] = assay: Intracellular ROS (H2O2) by flow cytometry of DCF-labeled cells; format: cell-based, human; conditions: Mia PACA-2, 72 hours; DPI 15 μM
Experimental: To determine the effect of serum in cancer cells, the following assay was conducted. Mia PACA-2 pancreatic cancer cells were cultured for 72 hours in the absence and presence of serum (15% FBS) or 100 ng/ml insulin growth factor-1 (IGF-1). Dichloroflyorescein diocetate (DCF-DA) was used to label the cells. Intracellular H2O2 was measured by flow cytometry of DCF-labeled cells. Intracellular ROS was measured using oxidation-sensitive cell-permeable fluorescent probe, dichlorofluorescein diacetate (DCF-DA) to measure H2O2. See Royall J A, and Ischiropoulos H. (1993) Arch. Biochem. Biophys. 302:348-355. To measure ROS, cells were collected after incubation, washed with PBS, and incubated for 15 minutes with […] DCF-DA. Samples were analyzed by flow cytometry. The amount of DCF-DA fluorescence correlated with the amount of ROS in the cells To determine the effects of serum, IGF-1, polyphenols and inhibitors of ROS on ROS production in cancer cells, the following assay was conducted. Mia PACA-2 cells were cultured for 72 hours in the presence of serum or IGF-1 with or without antioxidants, intracellular superoxide scavenger tiron (10 mM) or NADPH oxidase inhibitor, diphenylene iodonium (DPI, 15 μM) and trans-resveratrol (100 μM), genistein (100 μM), or a combination of polyphenolic compounds and antioxidants. Intracellular H2O2 was measured by flow cytometry of DCF-labeled cells. Mia PACA-2 cells and BSp73AS cells were cultured in Dulbecco's Modified Eagle's Medium supplemented with 10% heat inactivated FBS, penicillin G (100 U/ml) and streptomycin ([…]) in a humidified atmosphere comprising 5% (v/v) CO2. When the cells were 90% confluent they were detached, washed with alternating centrifugation and resuspension, plated and incubated in the same media with or without FBS or IGF-1 and with or without a given polyphenolic compound and with or without a given ROS inhibitor.

Mia PACA-2 cells [2] = assay: Oligonucleosomal DNA fragmentation by cell death ELISA; format: cell-based, human; conditions: Mia PACA-2, 72 hours, with serum
Experimental: Mia PACA-2 cells were cultured for 72 hours in the presence of serum with or without 15 μM DPI, 10 mM Tiron, 100 μM genistein, 100 μM or 50 μM trans-resveratrol, or a combination thereof. Oligonucleosomal DNA fragmentation was measured in cell lysates by cell death ELISA.
Annexin staining was conducted as described above. Cells were collected, washed with PBS, and centrifuged for 10 min at 200×g. DNA fragmentation was determined using Cell Death Detection ELISA Plus kit (Roche Molecular Biochemicals).
To determine the role of caspases in the effects of combinations of agents on apoptosis, the effects of caspase-3 activity (DEVDase activity) as well as the effect of the broad spectrum caspase inhibitor, Z-VAD, on apoptosis was measured. Specifically, Mia PACA-2 cells were cultured for 72 hours in the presence of serum with or without 100 μM Z-VAD, 15 μM DPI, 100 μM trans-resveratrol, 100 μM genistein, a combination of trans-resveratrol and DPI, and a combination of genistein and DPI. DEVDase activity was measured in whole cell lysates with a fluorimetric assay. DNA fragmentation was measured in cell lysates by cell death ELISA.
In particular, Mia PACA-2 cells were cultured for 72 hours in the presence of serum with or without 50 μM trans-resveratrol (RS), 15 μM DPI, a combination of DPI and trans-resveratrol (RS+DPI), 10 μM MG-132 alone and in combination with RS, DPI, and RS+DPI. Internucleosomal DNA fragmentation was measured in cell lysates by cell death ELISA.

Mia PACA-2 cells [3] = assay: Mitochondrial membrane potential, DiOC6(3) retention; format: cell-based, human; conditions: Mia PACA-2, 72 hours, in the presence of serum (FIG. 11)
Experimental: In order to determine the effects polyphenolic compounds have on mitochondrial membrane potential, the retention of the dye 3,3′-dihexyloxacarbocyanine (DiOC6(3)) was measured as described by Pastorino J G, et al. (1998) J Biol Chem 273:7770-7775, which is herein incorporated by reference. BSp73AS cells were cultured for 6 hours in the absence (control) or presence of 0, 12, 24, 50, and 100 μM quercetin and trans-resveratrol. The cells were loaded with 1 μM DiOC6(3) during the last 30 minutes of treatment with a polyphenolic compound (or vehicle). The cells were then collected and pelleted by centrifugation. The supernatant was removed and the pellet was washed twice with PBS by alternate centrifugation and resuspension. The pellet was then lysed by addition of 1 ml of H2O and homogenized. The concentration of DiOC6(3) was read on a Perkin-Elmer LS-5 fluorescence spectrometer at 488 nm excitation and 500 nm emission. An aliquot of the cells was used for determining the DiOC6(3) fluorescence that was retained by the cells.
Mia PACA-2 cells were cultured for 72 hours in the presence of serum and trans-resveratrol or genistein in the presence or absence of DPI or Tiron. Mitochondrial membrane potential was measured as described above.

NF-κB = NF-κB DNA binding activity (EMSA / gel shift); format: cell-based, human; conditions: Mia PACA-2, 72 hours, with serum; DPI 15 μM, trans-resveratrol 100 μM, genistein 100 μM, LY294002 50 μM
Experimental: In order to determine the role of activated NF-κB in the regulation of apoptosis caused by the polyphenolic compound, the following assay was conducted. BSp73AS cells were cultured for 6 hours and Mia PACA-2 cells were cultured in the absence of serum or growth factors for 24 hours in the absence (controls) or presence of rutin, quercetin, trans-resveratrol, or genistein, each at 100 μM and 20 μM proteosome inhibitor MG-132. Nuclear proteins were isolated and analyzed for NF-κB DNA binding activity with electrophoretic mobility shift assay (EMSA).
Specifically, aliquots of nuclear extracts with equal amount of protein, about 2 to about 10 μg, were mixed in 20 μl reactions with a buffer comprising 10 mM HEPES (pH 7.6), 50 mM KCl, 0.1 mM EDTA, 1 mM DTT, 10% (vol/vol) glycerol and 3 μg poly[d (I-C)]. After aliquots were equilibrated on ice for 5 minutes, binding reactions were stared by addition of 20-60,000 counts/min (20 fM) of ^32P-labeled DNA probes and allowed to proceed for 25-30 minutes at room temperature or up to 1 hour on ice. The oligonucleotide probe
containing the κB binding motif (underlined) was annealed to the complementary oligonucleotide with a 5′-G overhang and end-labeled using Klenow DNA polymerase I. The samples were electrophoresed at room temperature in 0.5×TBE buffer (1×TBE 89 mM Tris base, 89 mM boric acid and 2 mM EDTA) on nondenaturing 4.5% polyacrylamide gel at 200 V. Gels were dried and directly analyzed in the PhosphorImager (Molecular Dynamics, Sunnyvale, Calif.). The experiment was repeated twice.
To study the effects of combinations of DPI and polyphenolic compounds on serum-induced activation of NF-κB and protection from apoptosis, the following assay was conducted. Mia PACA-2 cells were cultured for 72 hours in the presence of serum with or without 100 μM trans-resveratrol, 15 μM DPI, a combination of trans-resveratrol, 100 μM genistein, or a combination of genistein and DPI. NF-κB binding activity was measured in nuclear extracts by gel shift assay as described above.
To determine the effects of LY29400 and DPI on NF-κB activation, Mia PACA-2 cells were cultured for 72 hours in the presence of serum and 15 μM DPI with or without 50 μM LY294002. NF-κB DNA binding activity was measured in nuclear extracts by gel shift assay as described above.

PARP [4] = assay: PARP proteolysis (Western blot); format: cell-based, rat; conditions: BSp73AS, 6 hours, 50 μM inhibitor
Experimental: (§1) BSp73AS cells were cultured for 6 hours and Mia PACA-2 cells were cultured for 24 hours in the presence or absence of 100 μM of each rutin, quercetin or trans-resveratrol and with or without 50 μM of each […]. The cells were washed twice with PBS and lysed by incubating for 20 minutes at 4° C. in lysis buffer comprising 0.15 M NaCl, 50 mM Tris (pH 7.2), 1% deoxycholic acid (wt/vol), 1% Triton X-100 (wt/vol), 0.1% […] (wt/vol) and 1 mM PMSF, as well as 5 μg/ml each of protease inhibitors, pepstatin, leupeptin, chymostatin, antipain, and aprotinin. Then the cell lysates were centrifuged for 20 minutes at 15,000 g at 4° C. The supernatants were separated by 4-20% SDS-PAGE for 2 hours at 120 V using precast Tris-glycine gels and a Mini-Cell gel apparatus (Novex, San Diego, Calif.). Separated proteins were electrophoretically transferred to a nitrocellulose membrane for 2 hours at 30 V using a Novex Blot Module (Novex, San Diego, Calif.). Nonspecific binding was blocked by 1 hour incubation of nitrocellulose membranes in 5% (wt/vol) nonfat dry milk in Tris-buffered saline (TBS; pH 7.5). Blots were then incubated overnight at 4° C. with rabbit polyclonal antibody against poly (ADP-ribose) polymerase (PARP) (Santa Cruz Biotechnology, Santa Cruz, Calif.) (1;3,000) in an antibody buffer comprising (1% (wt/vol) non-fat dry milk in TTBS (0.05% vol/vol) Tween-20 in TBS), washed 3 times with TTBS and finally incubated for 1 hour with a peroxidase-labeled secondary antibody in the antibody buffer. Blots were developed for visualization using ECL detection kit. To test for equal protein loading, the blots were stripped and re-probed with an antibody against tubulin. When processing of a protein was measured, a decrease in unprocessed full-length form was measured concomitantly with the increase in the cleaved, active form. The experiment was repeated 3 times with similar results.

PARP [5] = assay: PARP proteolysis (Western blot); format: cell-based, human; conditions: Mia PACA-2, 24 hours, 50 μM inhibitor
Experimental: as §1

caspase-3 = assay: Caspase-3 (DEVDase) activity, fluorogenic assay with DEVD-AMC; format: cell-based, human; conditions: Mia PACA-2, 24 hours; Z-VAD FMK 50 μM (FIG. 12B)
Experimental: To determine whether a polyphenolic compound activates caspase-3 activity in a time-dependent manner, the following assay was conducted. BSp73AS cells were cultured for 0, 1, 3, and 6 hours and Mia PACA-2 cells were cultured in the absence of serum or growth factors for 0, 1, 4, 6, and 24 hours in the presence of 100 μM or quercetin, trans-resveratrol, rutin, or control. Caspase-3 activity was measured in cell lysates with a fluorogenic assay using DEVD-AMC as a substrate. The results were normalized to the DEVDase activity in untreated cells.
A fluorimetric assay for caspase-3 activity was conducted. […] Cytosolic protein extracts (supernatants) were collected, protein concentrations were determined and the extracts were aliquoted and stored at −80° C. […] The reaction was started by addition of caspase-3 substrate, the readings were taken at 0, 60, 90, and 120 minutes. Fluorescence was calibrated using a standard curve for AMC. The data were expressed as mol AMC/mg protein/min.
Mia PACA-2 cells were cultured in the absence of serum or growth factors for 24 hours in the presence or absence of quercetin (100 μM), trans-resveratrol (100 μM), Z-VAD FMK (50 μM), cyclosporin A (5 μM) and/or aristolochic acid (50 μM). […] The reaction was started by addition of caspase-3 substrate, the readings were taken at 0, 60, 90, and 120 minutes. Fluorescence was calibrated using a standard curve for AMC. […] The data were expressed as mol AMC/mg protein/min. […]

cytochrome c = assay: Mitochondrial cytochrome c release (Western blot); format: cell-based, human; conditions: Mia PACA-2, 24 hours, Z-VAD FMK 50 μM
Experimental: In order to determine the effects polyphenolic compounds have on mitochondrial cytochrome c release and apoptosis, the following assay was conducted. BSp73AS cells were cultured for 6 hours and Mia PACA-2 cells were cultured in the absence of serum or growth factors for 24 hours in the absence or presence of 100 μM of each rutin, trans-resveratrol, genistein, or quercetin. Cells were washed twice with ice-cold PBS, pH 7.2 and resuspended in extraction buffer, about 500 μl, comprising 20 mM HEPES-KOH (pH 7.0), 10 mM KCl, 1 mM NaEGTA, 2 mM MgCl2, 1 mM EDTA, 1 mM DTT, 250 mM sucrose, 1 mM PMSF and protease inhibitors cocktail as provided above. The lysate was incubated for 30 minutes on ice and then homogenized using a glass dounce (80 strokes). Nuclei were removed by centrifugation at 1,000 g for 10 minutes at 4° C. Supernatant was additionally centrifuged for 1 hour at 100,000 g and the resulting supernatant (cytosolic fraction) and pellet (mitochondrial fraction) were collected separately, subjected to SDS-PAGE, and Western blotting using an antibody against cytochrome c. The experiment was repeated twice with similar results.
In order to determine the role of the cancer cell's PTP in the effects of the polyphenolic compounds on mitochondrial function, caspase-3 activation and apoptosis, we performed the following experiments. Mia PACA-2 cells were cultured in the absence of serum or growth factors for 24 hours in the presence or absence of quercetin (100 μM), trans-resveratrol (100 μM), Z-VAD FMK (50 μM), cyclosporin A (5 μM) and/or aristolochic acid (50 μM). Cells were collected, washed with ice-cold PBS and resuspended in lysis buffer comprising 0.5% Nonidet P-40 or manufactured by the name IGEPAL CA-630, 0.5 mM EDTA, 150 mM NaCl and 50 mM Tris at pH 7.5. Cell lysates were placed for 30 minutes on a rotator at 4° C. and then centrifuged for 15 minutes at 15,000 g. Cytosolic protein extracts (supernatants) were collected, protein concentrations were determined and the extracts were aliquoted and stored at −80° C. Cytosolic extracts were subjected to SDS-PAGE and Western blot was performed with an antibody against cytochrome c. Blots were then stripped and re-probed with an antibody against tubulin to confirm equal protein loading. The experiment was repeated twice with similar results.
In order to determine the effect of a combination of trans-resveratrol and quercetin on cytochrome c release and caspase-3 activity, the following was conducted. Mia PACA-2 cells were cultured in the absence of serum or growth factors for 24 hours in the presence or absence of trans-resveratrol (25 μM), quercetin (25 μM), or the combination of trans-resveratrol (25 μM) and quercetin (25 μM). Cytosolic extracts were prepared and subject to SDS-PAGE followed by protein transfer. Immunoblot was performed with an antibody against tubulin to confirm equal protein loading.

Row | Structure (SMILES) | increase in ROS production caused by trans-resveratrol and genistein, effect of DPI (Mia PACA-2 cells [1]) | oligonucleosomal DNA fragmentation (apoptosis) (Mia PACA-2 cells [2]; DPI 15 μM, Tiron 10 mM, genistein 100 μM, trans-resveratrol 100 or 50 μM) | mitochondrial membrane potential (Mia PACA-2 cells [3]) | NF-κB activation caused by serum (NF-κB) | PARP cleavage by quercetin and trans-resveratrol in the presence of caspase inhibitor (PARP [4]) | PARP cleavage by quercetin and trans-resveratrol in the presence of caspase inhibitor (PARP [5]) | apoptosis (DNA fragmentation) caused by combinations of ROS inhibitor and polyphenolic compound, effect of Z-VAD (Mia PACA-2 cells [2]; Z-VAD 100 μM) | caspase activity in cells treated with polyphenolic compounds, effect of Z-VAD (caspase-3) | release of cytochrome c into the cytoplasm in control (untreated) cells (cytochrome c; no serum) | cytosolic cytochrome c release caused by quercetin or trans-resveratrol (cytochrome c; polyphenol 100 μM)
1 | c1ccc2c(c1)[I+]c1ccccc1-2 [DPI, diphenylene iodonium, reference compound] | prevented | either no or small effects | markedly depolarized the mitochondrial membrane | not inhibited |  |  |  |  |  | 
2 | O=S(=O)(O)c1cc(O)c(O)c(S(=O)(=O)O)c1 [Tiron, reference compound] |  |  | markedly depolarized the mitochondrial membrane |  |  |  |  |  |  | 
3 | COC(=O)C[C@H](NC(=O)[C@H](C)NC(=O)[C@@H](NC(=O)OCc1ccccc1)C(C)C)C(=O)CF [Z-VAD, reference compound] (Cbz-Val-Ala-Asp(OMe)-CH2F) |  |  |  |  | cleavage did not occur | cleavage did not occur | inhibits apoptosis caused by the combinations | blocked caspase activity | inhibited the release of cytochrome c | had no effect
